Source: patent publication US20250025460A1, “USE OF A COMBINATION OF LEVOSIMENDAN AND AN SGLT-2 INHIBITOR TO TREAT HEART FAILURE” (Tenax Therapeutics, Inc., priority 2021, published 2025)

Columns and labels:
[1] = test system: phosphodiesterase-3 (PDE3); settings: cited from earlier work
PDE4 = settings: cited from earlier work
[2] = test system: whole cardiomyocytes and isolated contractile apparatus preparations; settings: cited from earlier work
[3] = follow-ups two weeks after treatment with levosimendan; cited from earlier work
[4] = in vivo; cited from earlier work
heart failure patients = settings: cited from earlier work
PH-HFpEF patient = assay: HELP Study: rest and exercise right heart catheterization after 24-hour i.v. levosimendan, Patient 019-002; type: in vivo, human; settings: single 24-hour open label lead-in infusion
Procedure: (§1) During the HELP Study, as described in PCT International Application Publication No. WO 2021/126884, the entire contents of which are incorporated by reference, Patient 019-002 was administered empagliflozin shortly after beginning levosimendan therapy.
Specifically, Patient 019-002 had established PH-HFpEF and was initially enrolled into the HELP Trial. The diagnosis of PH-HFpEF was confirmed by rest and exercise right heart catheterization. […] The PCWP of 35 mmHg at rest increased with exercise to 55 mmHg at baseline. […] Thus, levosimendan produced a 40% fall in resting PCWP and a 33% fall in exercise PCWP. In addition, at baseline the CVP was 18 mmHg and increased to 30 mmHg with exercise. Following the 24 hours of i.v. levosimendan the CVP fell to 12 mmHg at rest and to 21 mmHg with exercise. Thus, levosimendan produced a 33% fall in resting CVP, and a 30% fall in CVP with exercise. Accordingly, the response of Patient 019-002 to levosimendan treatment was typical of other patients in the study in terms of improvements to their hemodynamic profile (FIG. 1).

PH-HFpEF patients = assay: HELP Study: 6-minute walk distance; type: in vivo, human; settings: PH-HFpEF patients of the HELP Study, on average, levosimendan alone
Procedure: 6 MWT is the abbreviation for six-minute walk test. 6 MWT is a performance-based test used to measure functional exercise capacity. The 6 MWT measures the distance an individual is able to walk over a total of 6 minutes at a constant and normal pace. (Vandoni et al. 2018)
as §1

[5] = cited from earlier work

CC(=O)Nc1ccc(C2=NNC(=O)C[C@H]2C)cc1 [OR-1896, (R)-N-(4-(4-methyl-6-oxo-1,4,5,6-tetrahydropyridazin-3-yl)phenyl) acetamide]
potency in the inhibition of PDE3 compared with levosimendan [1]: profoundly less potent | potency in the inhibition of PDE4 compared with levosimendan (PDE4): profoundly less potent | inotropic effects, potency compared with levosimendan [2]: equipotent | concentrations of metabolite at follow-up [3]: detectable | hemodynamic and pharmacologic properties / activity compared with levosimendan [4]: similar

OC[C@H]1O[C@@H](c2ccc(Cl)c(Cc3ccc(O[C@H]4CCOC4)cc3)c2)[C@H](O)[C@@H](O)[C@@H]1O [empagliflozin]
6-minute walk distance or quality of life (heart failure patients; EMBRACE HF, PH-HFpEF patients, empagliflozin alone): did not demonstrate a meaningful difference | exercise capacity as measured by change in six-minute walk distance (heart failure patients; EMPERIAL-Preserved and EMPERIAL-Reduced trials, empagliflozin alone): neither of these trials showed an improvement | exercise capacity as measured by a difference in 6 MWD (heart failure patients; HFpEF, HFrEF or PH-HFpEF patients, empagliflozin alone (EMPERIAL-Preserved, EMPERIAL-Reduced, EMBRACE HF)): did not demonstrate a material change

C[C@@H]1CC(=O)NN=C1c1ccc(N)cc1 [OR-1855, (R)-6-(4-aminophenyl)-5-methyl-4,5-dihydropyridazin-3(2H)-one]
concentrations of metabolite at follow-up [3]: detectable | hemodynamic and pharmacologic properties / activity compared with levosimendan [4]: limited activity

C[C@@H]1CC(=O)NN=C1c1ccc(NN=C(C#N)C#N)cc1 [levosimendan]
change in pulmonary capillary wedge pressure (PCWP), FIG. 1 (PH-HFpEF patient): decrease | improvement of 6-minute walk distance (PH-HFpEF patients): approximately 29 m | plasma concentration profile of the levosimendan metabolite OR-1896 ([5]; subcutaneous compared with intravenous administration of levosimendan): similar | plasma concentrations of levosimendan ([5]; subcutaneous compared with intravenous administration): lower plasma concentrations
